Measured values taken from patent publication US6399606B1, “Neuroprotective agents and methods related thereto” (Nippon Kayaku Co., Ltd., priority 1999, dated 2002).

Test system: rat taxol induced neuropathy model
Assay: Rat taxol neuropathy model (sensory nerve conduction velocity)
Format: in vivo, Sprague-Dawley female rats
Conditions: once daily
Procedure: In vivo efficacy of representative compounds were tested with rat taxol induced neuropathy model reported by Cliffer et al. (Ann. Neurol 43:46-55, 1998).
Method Sprague-Dawley female rats (215-225g) were used. One week prior to the initiation of dosing with test compounds, base line electrophysiological recording were obtained. Dosing of the test compounds was initiated one day prior to the first injection of taxol (A.G. Scientific). Beginning on Day 2 animals were injected with total of two doses of 15 mg/kg paclitaxel giving 3 days apart, for a cumulative dose of […].
On Day 1 of the study, all rat were randomized into groups of 10 each and weighed. Dosing with test compounds was initiated on Day 1 and continued for a total of 45 days. Test compounds were administered by intraperitoneal (i.p.) injection or by post orum (p.o.) gavage in conscious once daily. Paclitaxel was administered on Day 2 and 5 by tail vein injection at 6 mg/ml in 50% saline/25%Cremophore/25% ethanol. One group was given the paclitaxel vehicle alone in an equivalent volume. Test compounds were formulated for dosing daily, immediately prior to dosing. The compounds were formulated by adding 15% of the final volume of pure PEG400 to the compounds and mixed on an orbital shaker for 40 minutes. Following dissolution, saline was added and the solution was vortexed. Taxol (A.G. Scientific) is solvated with Cremophore-ethanol vehicle at 12 mg/ml and then diluted 50/50 with saline. The test compounds are solvated with saline at appropriate concentration.
Sensory and motor nerve conduction velocities were evaluated using a method based in the protocol described by De Koning and Gispen (Peptides 8:415-422, 1987). Electrophysiological evaluation was carried out as a double blind study. Animals were anesthetized with isofluorane. In order to maintain body temperature, anesthetized animals were placed on Deltaphase ™ Isothermal Pads and rectal temperatures were monitored. Stimulating needle electrodes were inserted close to the sciatic nerve at the sciatic notch and the tibial nerve near the ankle. Subcutaneous recording electrodes were placed over the distal lumbricales foot muscles. Stimuli were supramaximal square-waves of 0.1 msec duration generated with a Grass S88 Stimulator through a Grass stimulation isolation unit. An ETH-260 Bride/Bio Amplifier (CB Sciences Inc), computer (Macintosh Iici), and data acquisition system (MacLab/200) were used for the recordings. The motor and sensory nerve conduction velocities were calculated by measuring the distance between the sciatic notch and ankle sites, and the latency between the M-wave and the H-reflex. The electrophysiological evaluations were conducted 2 weeks later. Statistical analysis was carried out using unpaired t-tests and repeated measures of analysis of variance (ANOVA) using Statview. In all cases 5% was chosen as the level of statistical significance in two-tailed tests.

[1] = p.o. administration, 20 mg/kg, FIG. 2, 3

Row | Structure (SMILES) | amelioration of taxol-induced retardation of sensory nerve conduction velocity [1] | also measured
1 | CC(=O)NCCSCC(CC(=O)N(C)C)C(=O)c1cccnc1 (stereo not drawn) [compound 188] | – | amelioration of taxol-induced retardation of sensory nerve conduction velocity (p.o. administration, 40 mg/kg, FIG. 2, 3): active
2 | CC(=O)NCCSCC(CC(=O)N1CCCCC1)C(=O)c1cccnc1 (stereo not drawn) [compound 189] | active | amelioration of taxol-induced retardation of sensory nerve conduction velocity (i.p. administration at 2.5 mg/kg, FIG. 2): active
3 | COC(=O)CC(CSC[C@H](NC(C)=O)C(=O)OC)C(=O)c1cccnc1 (stereo partly drawn) [compound 60] | – | amelioration of taxol-induced retardation of sensory nerve conduction velocity (i.p. administration at 10 mg/kg, FIG. 1, 3): active
4 | CC(=O)N[C@@H](CSCC(CC(=O)N(C)C)C(=O)c1cccnc1)C(=O)N1CCN(C)CC1 (stereo partly drawn) [compound 440] | active | –
5 | CCN(CC)CCN(C)C(=O)C(CSCC(CC(=O)N(C)C)C(=O)c1cccnc1)NC(C)=O (stereo not drawn) [compound 438] | active | –
